Laboratory results: patent US9327009B2, “Peptide inhibitors as novel anti-HIV therapeutics” (Council of Scientific & Industrial Research, priority 2012, dated 2016)

target: Nef-ASK1 interaction (UniProt P03404+Q99683); details: ATCC CRL-1573 cells co-transfected with Nef-ASK1g, 48 hours; ASK-1 alone 43.15, ASK-1 + Nef (background) 22.15, control 11.0
Method: HEK 293 cells were grown in Minimal Essential medium (low glucose, Sigma) supplemented with 10% fetal bovine serum, penicillin (100 units/ml), streptomycin (100 μg/ml) and Gentamycin (50 μg/ml) at 37° C. with 5% CO2. 1×10^5 cells were seeded per well in twenty four well plates, one day before transfection. Using commercially available ExGen 500 (fermentas) transfection reagent, all the required endotoxin free plasmid constructs were co-transfected into HEK 293 cells. 0.75 microgram of each plasmid and 5.0 micro liters per well ExGen 500 reagent were used. 48 h post transfection the cells were harvested and Luciferase activity was monitored using the Dual-Luciferase® Reporter assay kit (Promega). The data for basal control were used for the conversion of Luciferase activity to fold activation. As a positive control, the protein-protein interaction vectors pACTMyoD and pBIND-ID encoding the MyoD and ID control proteins, provided with the kit were used.
The ASK1g, h, i,j fragments alone and with Nef were transfected in ATCC CRL-1573™ cells. The transfected cells were cultured for 48 hours and were labeled with AnnexinV and PI staining for analyzing aspoptosis.
Inhibitors were designed from the crystal structure of Nef solved in our laboratory (Pankaj et al., 2011) The inhibitors were cultured with cells transfected will Nef, ASK1g and co-transfected with Nef-ASK1g. The cells after 48 hours were analysed for apoptosis using annexin V and PI staining.

Row | Sequence | % of Annexin V cells means apoptotic cells [%]
1 | DEVGEANN [Peptide-3] | 40.37
2 | GENNCLLH [Peptide-2] | 24.96
3 | LHGMEDPE [Peptide-4] | 23.0
4 | TPGPGVRYP [Peptide-1] | 22.45
5 | PVRPQVPLRP [Peptide-5] | 22.45
